Measured values taken from patent publication US11505558B1, “Antiviral heterocyclic compounds” (Enanta Pharmaceuticals, Inc., priority 2019, dated 2022).

tested on: genotype A, "Long" strain RSV; experiment: RSV-A assay (CPE, ATPlite readout in Hep-2 cells); format: cell-based; settings: human respiratory syncytial virus, HEp-2, Hep-2 cells, genotype A "Long" strain RSV, MOI 0.1; read-out: Human RSV-A (“Long” strain) EC50
Source text: Hep-2 cells, (originally derived from tumors grown in irradiated-cortisonised weanling rats that had been injected with epidermoid carcinoma tissue from a person's larynx, but later found to be indistinguishable from HeLa cells by PCR DNA analysis), were used for the culturing of genotype A, “Long” strain RSV. Flasks were inoculated with RSV and viral stocks were collected once cytopathic effect (CPE) was greater than […]. Viral stocks in […] sucrose media were snap frozen using liquid nitrogen to increase viral stability. Viral stock titers were quantified by tissue culture infectious dose 50% (TCID50) using 8,000 cells per well and 3-fold viral dilutions across a 96-well plate, cultured for 4 days. Viral stock titers were also quantified by a plaque forming unit assay, as described elsewhere.
Following extensive parameter testing, the final assay is run as follows: Hep-2 cells are seeded into the inner 60 wells of a 96-well plate at 8,000 cells per well in a volume of 50 μL using Growth Media (DMEM without phenol red, 1% L-Glut, 1% Penn/Strep, 1% nonessential amino acids, 10% heat-inactivated FBS). 2-fold serial dilutions of control and test compounds are added to the wells in duplicate in a total volume of 25 μL. Viral stock is then added to the wells at a multiplicity of infection (MOI) of 0.1 in a volume of 25 μL, bringing the total volume of each well to 100 μL. The MOI is calculated using the PFU/mL, or TCID50 if unavailable. Each 96-well plate has a control column of 6 wells with cells and virus but no compound (negative control, max CPE), a column with cells but no compound or virus (positive control, minimum CPE), and a column with no cells or virus or compound (background plate/reagent control). The control wells with cells but no virus are given an additional 25 μL of growth media containing an equal quantity of sucrose as those wells receiving the viral stock in order to keep consistent in media and volume conditions. The outer wells of the plate are filled with 125 μL of moat media (DMEM, 1% Penn/Strep) to act as a thermal and evaporative moat around the test wells. Following a 5-day incubation period, the plates are read using ATPlite (50 uL added per well), which quantifies the amount of ATP (a measure of cell health) present in each well. Assay plates are read using the Envision luminometer. […] EC50 ranges are as follows: A<0.2 μM; B>0.2 μM.

Row | SMILES | EC50
1 | C[C@]1(C(N)=O)COc2c1cc([C@@](O)(CNC(=O)c1ccc(-c3cnccc3C(F)(F)F)c(OC3CC3)c1)C(F)(F)F)nc2-c1ccc(F)cc1 [Example 149] | > 200 nM
2 | C[C@]1(C(N)=O)COc2c1cc([C@@](O)(CNC(=O)c1cc(NC(=O)c3cnn[nH]3)c3ncccc3c1)C(F)(F)F)nc2-c1ccc(F)cc1 [Example 404] | > 200 nM
3 | Cc1ccnc2c(O)cc(C(=O)NC[C@](O)(c3cc4c(c(-c5ccc(F)cc5)n3)OC[C@]4(C)C(N)=O)C(F)(F)F)cc12 [Example 250] | > 200 nM
4 | COc1nccc2cc(C(=O)NC[C@](O)(c3cc4c(c(-c5ccc(F)cc5)n3)OC[C@]4(C)C(N)=O)C(F)(F)F)ccc12 [Example 362] | > 200 nM
5 | C[C@]1(C(N)=O)COc2c1cc([C@@](O)(CNC(=O)c1ccc(-c3ccc(=O)[nH]c3)c(OC3CC3)c1)C(F)(F)F)nc2-c1ccc(F)cc1 [Example 169] | > 200 nM
6 | C[C@]1(C(N)=O)COc2c1cc([C@@](O)(CNC(=O)c1ccc(OC3CC3)c(-c3cccnc3C(F)(F)F)c1)C(F)(F)F)nc2-c1ccc(F)cc1 [Example 138] | < 200 nM
7 | C[C@]1(C(N)=O)COc2c1cc([C@@](O)(CNC(=O)c1cc(F)c3ncccc3c1)C(F)(F)F)nc2-c1ccc(F)cc1 [Example 63] | < 200 nM
8 | COc1cc(C(=O)NC[C@](O)(c2cc3c(c(-c4ccc(F)cc4)n2)OC[C@]3(C)C(=O)NCCC(C)(C)O)C(F)(F)F)cc2cccnc12 [Example 494] | < 200 nM
9 | C[C@]1(C(N)=O)COc2c1cc([C@@](O)(CNC(=O)c1ccc3c(c1)NC(=O)CO3)C(F)(F)F)nc2-c1ccc(F)cc1 [Example 313] | > 200 nM
10 | C[C@]1(C(N)=O)COc2c1cc([C@@](O)(CNC(=O)c1cncnc1)C(F)(F)F)nc2-c1ccc(F)cc1 [Example 298] | > 200 nM
11 | C[C@]1(C(N)=O)COc2c1cc([C@@](O)(CNC(=O)c1cc(C#N)c3ncccc3c1)C(F)(F)F)nc2-c1ccc(F)cc1 [Example 274] | < 200 nM
12 | C[C@]1(C(N)=O)COc2c1cc([C@@](O)(CNC(=O)c1cc(Oc3ccccn3)c3ncccc3c1)C(F)(F)F)nc2-c1ccc(F)cc1 [Example 386] | > 200 nM
13 | COc1cc(C(=O)NC[C@](O)(c2cc3c(c(-c4ccc(F)cc4)n2)OC[C@]3(C)C(N)=O)C(F)(F)F)cc2cc(S(C)(=O)=O)cnc12 [Example 649] | > 200 nM
14 | Cc1ncc(-c2ccc(C(=O)NC[C@](O)(c3cc4c(c(-c5ccc(F)cc5)n3)OC[C@]4(C)C(N)=O)C(F)(F)F)cc2OC2CC2)cn1 [Example 164] | > 200 nM
15 | Cc1cnccc1-c1cc(C(=O)NC[C@](O)(c2cc3c(c(-c4ccc(F)cc4)n2)OC[C@]3(C)C(N)=O)C(F)(F)F)ccc1OC1CC1 [Example 117] | > 200 nM
16 | COc1cc(C(=O)NCC(O)(c2cc3c(c(-c4ccc(F)cc4)n2)OC[C@]3(C)C(=O)NS(=O)(=O)C2CC2)C(F)(F)F)ccc1OCCO (stereo partly drawn) [Example 12] | > 200 nM
17 | C[C@]1(C(N)=O)COc2c1cc([C@@](O)(CNC(=O)c1cc(Nc3cccnn3)c3ncccc3c1)C(F)(F)F)nc2-c1ccc(F)cc1 [Example 347] | < 200 nM
18 | C[C@]1(C(N)=O)COc2c1cc([C@@](O)(CNC(=O)c1ccc(-c3ccncc3)c(OC3CC3)c1)C(F)(F)F)nc2-c1ccc(F)cc1 [Example 150] | < 200 nM
19 | C[C@]1(C(N)=O)COc2c1cc([C@@](O)(CNC(=O)c1ccc(-c3cccnc3C(F)(F)F)c(OC3CC3)c1)C(F)(F)F)nc2-c1ccc(F)cc1 [Example 145] | > 200 nM
20 | COc1ccc2[nH]c(C(=O)NC[C@](O)(c3cc4c(c(-c5ccc(F)cc5)n3)OC[C@]4(C)C(N)=O)C(F)(F)F)cc2c1 [Example 598] | < 200 nM
21 | C[C@]1(C(N)=O)COc2c1cc([C@@](O)(CNC(=O)c1cc(OC(F)(F)F)c3ncccc3c1)C(F)(F)F)nc2-c1ccc(F)cc1 [Example 278] | < 200 nM
22 | Cc1ncccc1-c1ccc(C(=O)NC[C@](O)(c2cc3c(c(-c4ccc(F)cc4)n2)OC[C@]3(C)C(N)=O)C(F)(F)F)cc1OC1CC1 [Example 144] | > 200 nM
23 | Cn1c(=O)oc2ccc(C(=O)NC[C@](O)(c3cc4c(c(-c5ccc(F)cc5)n3)OC[C@]4(C)C(N)=O)C(F)(F)F)cc21 [Example 328] | > 200 nM
24 | CC(=O)NCCCNC(=O)[C@@]1(C)COc2c1cc([C@@](O)(CNC(=O)c1cc(OC3CC3)c3ncccc3c1)C(F)(F)F)nc2-c1ccc(F)cc1 [Example 455] | < 200 nM

Row | SMILES | EC50
25 | C[C@]1(C(N)=O)COc2c1cc([C@@](O)(CNC(=O)c1ccc(C3=CCOCC3)c(OC3CC3)c1)C(F)(F)F)nc2-c1ccc(F)cc1 [Example 178] | > 200 nM
26 | C[C@]1(C(N)=O)COc2c1cc([C@@](O)(CNC(=O)c1cc3ccc(Cl)cc3[nH]1)C(F)(F)F)nc2-c1ccc(F)cc1 [Example 605] | < 200 nM
27 | COc1ccc(CC(=O)NC[C@](O)(c2cc3c(c(-c4ccc(F)cc4)n2)OC[C@]3(C)C(N)=O)C(F)(F)F)cc1OC [Example 592] | > 200 nM
28 | CC(C)(O)CNC(=O)[C@@]1(C)COc2c1cc([C@@](O)(CNC(=O)c1cc(Cl)c3ncccc3c1)C(F)(F)F)nc2-c1ccc(F)cc1 [Example 496] | < 200 nM
29 | C[C@]1(C(N)=O)COc2c1cc([C@@](O)(CNC(=O)c1ccc(-c3cccnc3)c(OC3CC3)c1)C(F)(F)F)nc2-c1ccc(F)cc1 [Example 141] | < 200 nM
30 | C[C@]1(C(=O)NCC(N)=O)COc2c1cc([C@@](O)(CNC(=O)c1cc(OC3CC3)c3ncccc3c1)C(F)(F)F)nc2-c1ccc(F)cc1 [Example 476] | < 200 nM
31 | COc1ncc(-c2ccc(C(=O)NC[C@](O)(c3cc4c(c(-c5ccc(F)cc5)n3)OC[C@]4(C)C(N)=O)C(F)(F)F)cc2OC2CC2)s1 [Example 177] | > 200 nM
32 | COc1cc(C(=O)NC[C@](O)(c2cc3c(c(-c4ccc(F)cc4)n2)OCC3(F)C(N)=O)C(F)(F)F)cn2cc(C3CC3)nc12 (stereo partly drawn) [Example 672] | < 200 nM
33 | C[C@]1(C(N)=O)COc2c1cc([C@@](O)(CNC(=O)c1ccc(OC3CC3)c(-c3cnc(C(F)(F)F)nc3)c1)C(F)(F)F)nc2-c1ccc(F)cc1 [Example 111] | > 200 nM
34 | COc1cc(C(=O)NC[C@](O)(c2cc3c(c(-c4ccc(F)cc4)n2)OC[C@]3(C)C(N)=O)C(F)(F)F)ccc1-c1ncc(C)o1 [Example 182] | < 200 nM
35 | CC(=O)NCCNC(=O)[C@@]1(C)COc2c1cc([C@@](O)(CNC(=O)c1cc(OC3CC3)c3ncccc3c1)C(F)(F)F)nc2-c1ccc(F)cc1 [Example 454] | > 200 nM
36 | COc1cncc(C(=O)NC[C@](O)(c2cc3c(c(-c4ccc(F)cc4)n2)OC[C@]3(C)C(N)=O)C(F)(F)F)c1 [Example 305] | > 200 nM
37 | C[C@]1(C(N)=O)COc2c1cc([C@@](O)(CNC(=O)c1ccnc(C(F)(F)F)n1)C(F)(F)F)nc2-c1ccc(F)cc1 [Example 301] | > 200 nM
38 | Cc1cc(-c2ccc(C(=O)NC[C@](O)(c3cc4c(c(-c5ccc(F)cc5)n3)OC[C@]4(C)C(N)=O)C(F)(F)F)cc2OC2CC2)ccn1 [Example 151] | < 200 nM
39 | COc1cc(C(=O)NC[C@](O)(c2cc3c(c(-c4ccc(F)cc4)n2)OC[C@]3(C)CN[C@@H](C)C2CC2)C(F)(F)F)ccc1OC1CC1 [Example 19] | < 200 nM
40 | CC(C)(C)OC(=O)NCCOc1cc(C(=O)NC[C@](O)(c2cc3c(c(-c4ccc(F)cc4)n2)OC[C@]3(C)C(N)=O)C(F)(F)F)cc2cccnc12 [Example 355] | > 200 nM
41 | C[C@]1(C(N)=O)COc2c1cc([C@@](O)(CNC(=O)c1ccc3nc(N)sc3c1)C(F)(F)F)nc2-c1ccc(F)c(Cl)c1 [Example 432] | < 200 nM
42 | Cc1ccncc1-c1ccc(C(=O)NC[C@](O)(c2cc3c(c(-c4ccc(F)cc4)n2)OC[C@]3(C)C(N)=O)C(F)(F)F)cc1OC1CC1 [Example 148] | > 200 nM
43 | C[C@]1(C(N)=O)COc2c1cc([C@@](O)(CNC(=O)c1cc3ccccc3[nH]1)C(F)(F)F)nc2-c1ccc(F)cc1 [Example 599] | > 200 nM
44 | C[C@]1(C(N)=O)COc2c1cc([C@@](O)(CNC(=O)c1cc(Oc3ncccn3)c3ncccc3c1)C(F)(F)F)nc2-c1ccc(F)cc1 [Example 614] | > 200 nM
45 | COc1cc(C(=O)NC[C@](O)(c2cc3c(c(-c4ccc(F)cc4)n2)OC[C@]3(C)C(=O)NC2(C)CC(F)(F)C2)C(F)(F)F)cc2cccnc12 [Example 58] | > 200 nM
46 | C[C@]1(C(N)=O)COc2c1cc([C@@](O)(CNC(=O)c1cnn3cccnc13)C(F)(F)F)nc2-c1ccc(F)cc1 [Example 585] | > 200 nM
47 | C[C@]1(C(N)=O)COc2c1cc([C@@](O)(CNC(=O)c1cc(Cl)c3ncccc3c1)C(F)(F)F)nc2-c1ccc(F)c(Cl)c1 [Example 220] | < 200 nM
48 | C[C@]1(C(N)=O)COc2c1cc([C@@](O)(CNC(=O)c1nc3cccnc3[nH]1)C(F)(F)F)nc2-c1ccc(F)cc1 [Example 302] | > 200 nM
